Source: patent publication US20250382583A1, “ENHANCED METHODS FOR INDUCING AND MAINTAINING NAIVE HUMAN PLURIPOTENT STEM CELLS” (Washington University, priority 2021, published 2025)

Assays:
Format in all cases: cell-based, human
[1] = test system: H9-naïve hESCs; assay: Extended maintenance assay, flow cytometry for naïve-specific CD75 and SUSD2; details: serum-free media supplemented with XGY, 2.5 μM compound
Procedure: (§1) Defining alternative naïve maintenance media: To define the activity of selected hit compounds during extended naïve culture, naïve hESCs derived from the primed state and maintained in 5i/L/A were dissociated with Accutase (Thermo Fischer Scientific, A1110501) and 1.5×10^5 single cells were seeded in 5i/L/A media on MEF-coated plates. After 24 hours, 5i/L/A media were switched to experimental maintenance conditions to validate hits from the screen. After 4-6 days the cells were split in a 1:2 or 1:3 ratio and further maintained for 4-6 days before analysis by FACS, qRT-PCR, AP staining, and/or RNA-seq. 5i/L/A media in which the MEK inhibitor PD0325901 was replaced with 5 μM AZ628 are represented as alternative 5i/L/A (a5i/L/A). FXGY, AXGY, AXGYU, PXGY, and GXGY media were prepared in serum-free N2B27 media supplemented with 1 μM PD166866, 5 μM AZ628, 5 μM AZ628 and 1 μM UNC0638, 1 μM PD0325901, and 5 μM GDC-0994, respectively, together with 2 μM XAV939, 2 μM Gö6983, and 10 μM Y-27632. During these assays cells were fed with fresh media every second day and cultured in 5% O2, 5% CO2 at 37° C. Detailed information on conditions used for defining alternative naïve maintenance media can be found in Tables 1-6.
Flow cytometry: Primed hESCs were single-cell dissociated using TrypLE Express, while Accutase was used for naïve hESCs. Cells were resuspended in fibroblast medium and centrifuged. Cell pellets were washed in 5 mL ice-cold PBS. The cells were then resuspended in […] fresh ice-cold FACS buffer (PBS supplemented with 5% FBS), and incubated with antibodies for 30 minutes on ice in the dark. The following antibodies were used: anti-SUSD2-PE (1:100), anti-CD75-eFluor 660 (1:100), anti-CD90-PE (1:100), anti-ITGA6-FITC (1:100) and EGFR-APC (1:25). Post-incubation the cells were washed once with 1 mL ice-cold PBS, resuspended in fresh 500 μl FACS buffer, and passed through a […] cell strainer into round bottom FACS tubes (Corning, #352235). Flow cytometry was performed using a BD LSRFortessa X-20 and the data were analyzed using the FlowJo software.

[2] = test system: naïve hESCs; assay: Colony morphology, proliferation and colony formation (phase contrast, AP staining) during naïve maintenance
Procedure: as §1
(§2) Alkaline phosphatase (AP) staining: AP staining was performed following the manufacturer's instructions using the Leukocyte Alkaline Phosphatase Kit (Sigma, 86R, 1KT). For AP staining cells were seeded at equal density in 6-well plates and passaged in the same ratio for all conditions. Post-staining cells were allowed to dry overnight in the dark and scanned using HP Color Laser Jet Managed printer/scanner (MFP E67650).
(§3) Imaging: The imaging of H9 and WIBR3 hESCs was performed in live conditions within culture media. For WIBR3 MECP2-GFP/tdTomato hESCs the medium was aspirated, cell were washed twice with PBS, and imaged in 1 mL of PBS. All images were captured at 10× magnification on a Leica DMi8 microscope.

[3] = test system: H9 hESCs; assay: Primed-to-naïve reprogramming, colony morphology and colony numbers (imaging, AP staining); details: for morphological appearance of naïve hESCs on individual addition to PXGGY/A: 20 ng/ml LIF, 0.5 μM IM12 or 0.5 μM WH-04, P2
Procedure: (§4) […]: For primed-to-naïve resetting experiments, primed hESCs were dissociated into single cells using TrypLE Express (GIBCO, 12604), washed in fibroblast medium [DMEM (Millipore Sigma, #SLM-021-B) supplemented with 10% FBS (HyClone, SH30396.03, 1×GlutaMAX (GIBCO, 35050), and 1% penicillin-streptomycin (GIBCO, 15140)] and 2×10^5 single primed hESCs were seeded on mitomycin C-inactivated mouse embryonic fibroblast (MEF) feeder cells coated 6 well plates in 3-4 mL mTeSR1 supplemented with 10 μM Y-27632. Two days later, medium was switched to either 5i/L/A or experimental induction media and maintained for 10-12 days. Cells at this stage were considered at passage zero. Cells were then split in a 1:2 or 1:3 ratio every 4-6 days as single cells using Accutase (Thermo Fischer Scientific, A1110501). PXGGY media were prepared in serum-free N2B27 media supplemented with 1 μM PD0325901, 2 μM XAV939, 2 μM Gö6938, 2.5 μM GDC-0994, and 10 μM Y-27632. PXGGY/A media were prepared in PXGGY supplemented with 10 ng/ml Activin A. During these assays cells were fed with fresh media every second day and cultured in 5% O2, 5% CO2 at 37° C. Detailed information on the conditions used for defining alternative naïve induction media can be found in Tables 1-6.
as §2, §3
Example 1 establishes the PXGGY/A cocktail enables efficient primed-to-naïve reprogramming, homogenous induction of naïve-specific cell surface markers CD75 and SUSD2, and homogenous X-chromosome reactivation. […] To address this, the impact of ROCK inhibitor Y-27632 titration was first assessed when used continuously or transiently for only 24 hours at the time of passaging during primed-to-naïve reprogramming (FIG. 9A and FIG. 9B). […] The PXGGY/A composition from hereon will be denoted as PXGGY/A to specify transient use of ROCKi.
However, the morphology of naïve hESCs reprogrammed using this condition still appeared flat compared to the characteristic dome-shaped colony morphology associated with naïve pluripotency. […]

[4] = test system: H9 primed hESCs; assay: Primed-to-naïve resetting, flow cytometry for CD75 and SUSD2
Procedure: as §4, with “PXGGY/A media were prepared in PXGGY supplemented with 10 ng/ml Activin A. During these assays cells were fed with fresh media every second day and cultured in 5% O2, 5% CO2 at 37° C. Detailed information on the conditions used for defining alternative naïve induction media can be found in Tables 1-6.” left out
Flow cytometry: Primed hESCs were single-cell dissociated using TrypLE Express, while Accutase was used for naïve hESCs. […] Flow cytometry was performed using a BD LSRFortessa X-20 and the data were analyzed using the FlowJo software.

[5] = test system: H9-naïve hESCs; assay: qRT-PCR for naïve-specific transcripts (KLF17, DNMT3L) during naïve maintenance
Procedure: as §1
(§5) Quantitative reverse transcriptase PCR (qRT-PCR): Total RNA was isolated using the E.Z.N.A. total RNA kit I and cDNA synthesis was performed from total RNA using the high-capacity cDNA reverse transcription kit (Applied Biosystems, 4368814). qRT-PCR was performed using PowerUp SYBR Green Master Mix (Applied Biosystems, A25743) on the StepOnePlus Real-Time PCR System (Applied Biosystems). Gene expression was normalized to RPLP0 and analyzed using the ΔCt method. Error bars represent the standard deviation (SD) of the mean of technical replicates.

[6] = test system: WIBR3 OCT4-ΔPE-GFP+-naïve hESCs; assay: Extended maintenance assay, OCT4-ΔPE-GFP reporter activity (imaging, qRT-PCR); details: for activity in maintaining OCT4-ΔPE-GFP reporter activity after passaging: 2.5 and 5 μM, two passages
Procedure: as §1, §5
For this purpose, WIBR3 OCT4-ΔPE-GFP+-naïve hESCs that were generated in the absence of reprogramming transgenes were used using the 5i/L/A cocktail. […] Compounds were tested at two different concentrations (2.5 and 5 μM), and cells were maintained for two passages (FIG. 2A).

[7] = test system: WIBR3 OCT4-ΔPE-GFP+naïve hESCs; assay: High-throughput chemical screening in absence of 2i, OCT4-ΔPE-GFP reporter, high-content imaging; details: N2B27/Y
Procedure: High-throughput chemical screening: For high-throughput screening, WIBR3 OCT4-ΔPE-GFP+naïve hESCs generated with inducible KLF2 and NANOG transgenes were used, as described previously. These cells were maintained in 1 μM PD0325901, 1 µM CHIR99021, and 2 μg/ml DOX (Sigma) (2i/DOX). For compound screening in presence of 2i/Y, 3,000 OCT4-ΔPE-GFP+naïve hESCs were seeded per well in vitronectin-coated 384 well plates in serum-free N2B27 media supplemented with 1 μM PD0325901, 1 μM CHIR99021, and 10 μM Y-27632. The next day individual compounds from the Novartis Mechanism of Action (MoA) library were applied at two concentrations (2.5 μM and 5 μM) in duplicate using an Echo 550 Acoustic Liquid Handler (Labcyte), and compounds were refreshed on day 4. Images were analyzed on day 5 post-DOX withdrawal using a Yokogawa Cell Voyager 7000 High-Content Imaging System in confocal mode using a 10× dry (NA=0.45) objective lens using four fields per well that provided for full well coverage. While the screen was performed at two concentrations (2.5 μM and 5 μM), the lower concentration yielded few additional hits. Hit compounds were validated in 384 well plates across an 8-point concentration range in duplicates. […] Images were acquired using the Yokogawa Cell Voyager 7000 on day 7 and analyzed as described above. […]

`C/C(=N\NC(=N)N)c1cc(NC(=O)CCCCCCCCC(=O)Nc2cc(/C(C)=N/NC(=N)N)cc(/C(C)=N/NC(=N)N)c2)cc(/C(C)=N/NC(=N)N)c1` [Semapimod] was tested, and the “sustaining CD75/SUSD2-positive cells over multiple passages” value [1] was “some double-positive cells” and the “proliferation of double-positive cells” value ([2]; serum-free media supplemented with XGY) was “very limited proliferation”.
With `CC(C)(C)n1nc(-c2cccc3ccccc23)c2c(N)ncnc21` [Naphtol-PP1] the “colony morphology upon addition to the AXGY cocktail” value ([2]; added to AXGY) was “enhanced dome-shaped colony morphology”.
In the case of `Cc1[nH]c2ccccc2c1C1=C(NCCc2ccc(F)cc2)C(=O)N(C)C1=O` [IM12], the “morphological appearance of naïve hESCs on individual addition to PXGGY/A” value (from here on “morphological appearance of naïve hESCs”) [3] is reported as “did not result in a major improvement”.
For `C[C@@H](N)[C@H]1CC[C@H](C(=O)Nc2ccncc2)CC1` [Y-27632], the “CD75+/SUSD2+ cell proportion” value ([4]; transient application of 10 μM in PXGGY/A, P1) was “without any significant reduction” and the “morphology of reprogrammed naïve hESCs” value ([3]; transient application (24 hours at passaging) of 10 μM in PXGGY/A) was “improves the morphology”.
`COc1ccc(N(C(=O)Oc2c(C)cccc2C)c2ccnc(Nc3ccc(N4CCN(C)CC4)cc3)n2)c(OC)c1` [WH-4-023] was tested, and the “morphological appearance of naïve hESCs” value [3] was “did not result in a major improvement”.
`COc1cc2c(NC3CCN(C(C)C)CC3)nc(C3CCCCC3)nc2cc1OCCCN1CCCC1` [UNC0638] was tested, and the “KLF17 expression upon addition to the AXGY cocktail” value ([5]; added to AXGY) was “further stimulated” and the “colony proliferation compared to AXGY” value ([2]; added to AXGY) was “slightly reduced”.
`COc1cc(OC)cc(-c2cc3cnc(N)nc3nc2NC(=O)NC(C)(C)C)c1` [PD166866] was tested, and the “activity in maintaining OCT4-ΔPE-GFP reporter activity after passaging” value ([6]; in the presence of ROCK inhibitor (Y) alone) was “showed activity”, the “sustaining CD75/SUSD2-positive cells over multiple passages” value [1] was “robustly sustained” and the “concentration effective to maintain expression of naïve-specific transcripts (titration)” value ([5]; in XAV/Gö/Y, KLF17 and DNMT3L) was 1 µM. The “induction of CD75/SUSD2 double-positive cells in primed hESCs” value ([4]; in the presence of XGY and activin A, end of P1) was “heterogeneous induction”.
With “LIF: leukemia inhibitory factor, recombinant human cytokine” the “morphological appearance of naïve hESCs” value [3] was “did not result in a major improvement”.
In the case of `Oc1nc(-c2ccc(C(F)(F)F)cc2)nc2c1CSCC2` [XAV939], the “colony size and OCT4-ΔPE-GFP signal compared to inhibition of MEK1” value [7] is reported as “larger colonies but a slightly dimmer OCT4-ΔPE-GFP signal” and the “increase in GFP activity (OCT4-ΔPE-GFP)” value ([7]; validation assays, absence of 2i) is reported as “particularly strong effect”.
For `Cc1ccc(NC(=O)c2cccc(C(C)(C)C#N)c2)cc1Nc1ccc2ncn(C)c(=O)c2c1` [AZ628], the “activity in maintaining OCT4-ΔPE-GFP reporter activity after passaging” value ([6]; in Go/Y) was “showed activity”, the “activity in maintaining OCT4-ΔPE-GFP reporter activity after passaging” value ([6]; in XAV/Y) was “showed activity” and the “expansion of OCT4-ΔPE-GFP+ cells” value ([6]; in the presence of either XAV or Go) was “robust expansion”. The “sustaining CD75/SUSD2-positive cells over multiple passages” value [1] was “robustly sustained”.
